Experimental data as given in ChEMBL document CHEMBL5375956, “Discovery of Pyrazolo[1,5-a]pyrimidine Derivative as a Novel and Selective ALKBH5 Inhibitor for the Treatment of AML” (J Med Chem, 2023).
The source made the active and inactive calls. The rule behind the calls is not given here.

Key:
[1] = target: T1, Alpha-ketoglutarate-dependent dioxygenase FTO (Homo sapiens, UniProt Q9C0B1); experiment: Inhibition of FTO (32 to 505 residues)(unknown origin) expressed in Escherichia coli BL21(DE3) by FP assay
Target sequence in this assay (Q9C0B1 whole entry, the tested form may be a part): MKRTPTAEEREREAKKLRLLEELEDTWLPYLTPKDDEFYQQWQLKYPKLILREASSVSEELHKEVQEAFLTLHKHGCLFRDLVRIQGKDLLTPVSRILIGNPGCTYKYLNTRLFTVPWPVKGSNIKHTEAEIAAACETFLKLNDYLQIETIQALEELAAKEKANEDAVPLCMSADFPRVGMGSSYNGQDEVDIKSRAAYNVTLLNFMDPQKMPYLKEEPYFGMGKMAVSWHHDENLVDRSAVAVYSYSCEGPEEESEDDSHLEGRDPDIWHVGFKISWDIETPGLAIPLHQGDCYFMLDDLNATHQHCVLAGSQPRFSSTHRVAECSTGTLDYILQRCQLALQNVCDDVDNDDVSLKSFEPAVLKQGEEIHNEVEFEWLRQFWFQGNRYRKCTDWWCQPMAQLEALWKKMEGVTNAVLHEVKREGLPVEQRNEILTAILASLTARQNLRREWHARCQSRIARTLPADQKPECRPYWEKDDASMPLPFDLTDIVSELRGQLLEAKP

[2] = target: T1, Alpha-ketoglutarate-dependent dioxygenase FTO; experiment: Binding affinity to NT-647-NHS fluorescent dye-labeled FTO (32 to 505 residues)(unknown origin) expressed in Escherichia coli BL21(DE3) using m6A-ssDNA as substrate incubated for 15 mins by MST assay
Target sequence in this assay (Q9C0B1 whole entry, looked up, the tested form may be a part): as the sequence (Q9C0B1 whole entry, the tested form may be a part) above

RNA demethylase ALKBH5 [3] = target: T2, RNA demethylase ALKBH5 (Homo sapiens, UniProt Q6P6C2); experiment: Binding affinity to ALKBH5 in human MOLM-13 cells assessed as thermal shift heating at 200 uM incubated for 30 mins followed by heating at 45 to 67 degreeC measured for 3 mins by CETSA assay; type: cell-based
Target sequence in this assay (Q6P6C2 2-394 limits assumed): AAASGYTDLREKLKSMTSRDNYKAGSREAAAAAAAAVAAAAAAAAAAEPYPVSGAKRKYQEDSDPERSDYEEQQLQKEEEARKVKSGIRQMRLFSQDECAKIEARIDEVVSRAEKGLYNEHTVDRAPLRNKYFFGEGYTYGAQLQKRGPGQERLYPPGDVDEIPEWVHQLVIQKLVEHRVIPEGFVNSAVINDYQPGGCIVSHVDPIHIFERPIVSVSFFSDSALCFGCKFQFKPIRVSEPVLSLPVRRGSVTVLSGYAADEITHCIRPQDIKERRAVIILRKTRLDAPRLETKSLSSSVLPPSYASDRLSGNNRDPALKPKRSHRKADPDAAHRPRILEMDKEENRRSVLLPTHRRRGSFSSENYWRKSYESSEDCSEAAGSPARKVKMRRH

RNA demethylase ALKBH5 [4] = target: T2, RNA demethylase ALKBH5; experiment: Inhibition of ALKBH5 (66 to 292 residues)(unknown origin) expressed in Escherichia coli BL21(DE3) using 5'-ATTGTCA(m6A)CAGCAGA-FAM-3' as substrate incubated for 30 mins in presence of 200 uM of 2-OG by FP based competitive binding assay
Target sequence in this assay (Q6P6C2 whole entry, the tested form may be a part): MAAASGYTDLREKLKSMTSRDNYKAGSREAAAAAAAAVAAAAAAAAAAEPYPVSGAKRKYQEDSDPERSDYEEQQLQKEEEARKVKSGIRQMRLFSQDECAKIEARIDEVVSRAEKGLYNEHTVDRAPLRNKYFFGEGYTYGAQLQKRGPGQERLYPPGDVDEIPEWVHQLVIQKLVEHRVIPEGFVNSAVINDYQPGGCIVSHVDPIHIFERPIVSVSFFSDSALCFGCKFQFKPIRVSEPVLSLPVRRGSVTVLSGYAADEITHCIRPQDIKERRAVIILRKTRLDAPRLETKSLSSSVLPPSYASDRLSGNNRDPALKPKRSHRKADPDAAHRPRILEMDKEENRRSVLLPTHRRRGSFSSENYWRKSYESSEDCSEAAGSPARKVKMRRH

RNA demethylase ALKBH5 [5] = target: T2, RNA demethylase ALKBH5; experiment: Inhibition of ALKBH5 (66 to 292 residues)(unknown origin) expressed in Escherichia coli BL21(DE3) using 5'-ATTGTCA(m6A)CAGCAGA-FAM-3' as substrate incubated for 30 mins in presence of 0.2 uM of 2-OG by FP based competitive binding assay
Target sequence in this assay (Q6P6C2 whole entry, the tested form may be a part): as above

RNA demethylase ALKBH5 [6] = target: T2, RNA demethylase ALKBH5; experiment: Inhibition of ALKBH5 in HEK293 cells assessed as increase in m6A RNA level at 10 to 40 uM by colorimetric assay; type: cell-based; conditions: dose 10-40 µM
Target sequence in this assay (Q6P6C2 2-394 limits assumed): as the sequence (Q6P6C2 2-394 limits assumed) above

RNA demethylase ALKBH5 [7] = target: T2, RNA demethylase ALKBH5; experiment: Inhibition of ALKBH5 in human MV4-11 cells assessed as increase in m6A mRNA methylation level at 20 uM incubated for 48 hrs by LC-MS/MS analysis; type: cell-based
Target sequence in this assay (Q6P6C2 2-394 limits assumed): as above

RNA demethylase ALKBH5 [8] = target: T2, RNA demethylase ALKBH5; experiment: Inhibition of ALKBH5 in human MOLM-13 cells assessed as increase in m6A mRNA methylation level at 20 uM incubated for 48 hrs by LC-MS/MS analysis; type: cell-based
Target sequence in this assay (Q6P6C2 2-394 limits assumed): as above

MV4-11 [9] = experiment: Induction of cell cycle arrest at […] phase in human MV4-11 cells at 20 uM incubated for 48 hrs by […]PI staining based flow cytometry; type: functional
MV4-11 [10] = experiment: Induction of apoptosis in human MV4-11 cells assessed as viable cells at 5 uM incubated for 48 hrs by Annexin V-FITC/PI staining based flow cytometry (reference value: 89.8 %); type: functional; conditions: read-out: Activity
MV4-11 [11] = experiment: Induction of apoptosis in human MV4-11 cells assessed as viable cells at 10 uM incubated for 48 hrs by Annexin V-FITC/PI staining based flow cytometry (reference value: 89.8 %); type: functional; conditions: read-out: Activity
MV4-11 [12] = experiment: Induction of apoptosis in human MV4-11 cells assessed as necrotic cells at 10 uM incubated for 48 hrs by Annexin V-FITC/PI staining based flow cytometry (reference value: 1.81 %); type: functional
MOLM-13 [13] = experiment: Induction of apoptosis in human MOLM-13 cells assessed as viable cells at 5 uM incubated for 48 hrs by Annexin V-FITC/PI staining based flow cytometry (reference value: 89.8 %); type: functional; conditions: read-out: Activity
MOLM-13 [14] = experiment: Induction of apoptosis in human MOLM-13 cells assessed as necrotic cells at 5 uM incubated for 48 hrs by Annexin V-FITC/PI staining based flow cytometry (reference value: 1.00 %); type: functional
MOLM-13 [15] = experiment: Induction of apoptosis in human MOLM-13 cells assessed as viable cells at 10 uM incubated for 48 hrs by Annexin V-FITC/PI staining based flow cytometry (reference value: 89.8 %); type: functional; conditions: read-out: Activity
MOLM-13 [16] = experiment: Induction of apoptosis in human MOLM-13 cells assessed as early apoptosis cells at 10 uM incubated for 48 hrs by Annexin V-FITC/PI staining based flow cytometry (reference value: 2.72 %); type: functional
MOLM-13 [17] = experiment: Induction of apoptosis in human MOLM-13 cells assessed as necrotic cells at 10 uM incubated for 48 hrs by Annexin V-FITC/PI staining based flow cytometry (reference value: 1.00 %); type: functional
MOLM-13 [18] = experiment: Downregulation of TACC3 mRNA level in human MOLM-13 cells assessed as half life of expression at 20 umol/L incubated for 24 hrs by qRT-PCR analysis (reference value: 2.87 hrs); type: functional, cell-based; conditions: dose 20.0 µmol/L
MOLM-13 [19] = experiment: Downregulation of TACC3 mRNA level in human MOLM-13 cells at 5 to 10 uM incubated for 48 hrs by qRT-PCR analysis; type: functional, cell-based; conditions: dose 5-10 µM
MOLM-13 [20] = experiment: Downregulation of c-Myc mRNA level in human MOLM-13 cells at 5 to 10 uM incubated for 48 hrs by qRT-PCR analysis; type: functional, cell-based; conditions: dose 5-10 µM
MV4-11 [21] = experiment: Downregulation of c-Myc level in human MV4-11 cells upto 10 uM incubated for 48 hrs by Western blot analysis; type: functional, cell-based
HEK293 [22] = experiment: Effect on c-Myc mRNA level in HEK293 cells at 5 to 10 uM incubated for 48 hrs by qRT-PCR analysis; type: functional, cell-based; conditions: Homo sapiens, dose 5-10 µM
HEK293 [23] = experiment: Effect on TACC3 level in HEK293 cells upto 10 uM incubated for 48 hrs by Western blot analysis; type: functional, cell-based; conditions: Homo sapiens
HUVEC = experiment: Effect on TACC3 level in HUVEC cells upto 10 uM incubated for 48 hrs by Western blot analysis; type: functional, cell-based; conditions: Homo sapiens
[24] = Metabolic stability in rat plasma assessed as half life measured upto 240 mins by LC-MS/MS analysis; type: ADME, cell-free
[25] = Metabolic stability in human plasma assessed as half life measured upto 240 mins by LC-MS/MS analysis; type: ADME, cell-free
[26] = Metabolic stability in human liver microsomes assessed as clearance measured upto 240 mins by LC-MS/MS analysis; type: ADME, Microsome; conditions: read-out: CLH
[27] = AUC (0 to infinity) in Sprague-Dawley rat at 2 mg/kg, iv measured for 1 to 1440 mins by LC-MS/MS analysis; type: ADME, organism-based; conditions: in vivo
[28] = Apparent volume of distribution during terminal phase in Sprague-Dawley rat at 2 mg/kg, iv measured for 1 to 1440 mins by LC-MS/MS analysis; type: ADME, organism-based; conditions: in vivo, time 1-1440 min
[29] = Apparent oral clearance in Sprague-Dawley rat at 2 mg/kg, iv measured for 1 to 1440 mins by LC-MS/MS analysis; type: ADME, organism-based; conditions: in vivo, time 1-1440 min
[30] = MRT in Sprague-Dawley rat at 2 mg/kg, iv measured for 1 to 1440 mins by LC-MS/MS analysis; type: ADME, organism-based; conditions: in vivo, time 1-1440 min
[31] = Oral bioavailability in Sprague-Dawley rat at 10 mg/kg measured for 1 to 1440 mins by LC-MS/MS analysis; type: ADME, organism-based; conditions: in vivo, time 1-1440 min
[32] = Toxicity in nude mouse xenografted with human MV4-11 cells assessed as spleen weight change at 10 to 40 mg/kg, ip treated every day for 14 days; type: organism-based; conditions: in vivo, 336 h, dose 10-40 mg/kg, time 14 day
[33] = Toxicity in nude mouse xenografted with human MV4-11 cells assessed as lung weight change at 10 to 40 mg/kg, ip treated every day for 14 days; type: organism-based; conditions: in vivo, 336 h, dose 10-40 mg/kg, time 14 day
[34] = Toxicity in nude mouse xenografted with human MV4-11 cells assessed as lung damage at 10 to 40 mg/kg, ip treated every day for 14 days by H and E staining based analysis; type: organism-based; conditions: in vivo, 336 h, dose 10-40 mg/kg, time 14 day

- IC50 [1]: > 200 µM
- Activity [2]: inactive
- Activity (RNA demethylase ALKBH5 [3]): Active
- IC50 (RNA demethylase ALKBH5 [4]): 4.46 µM
- IC50 (RNA demethylase ALKBH5 [5]): 4.89 µM
- inhibition (RNA demethylase ALKBH5 [6]): Active
- inhibition (RNA demethylase ALKBH5 [7]): Active
- inhibition (RNA demethylase ALKBH5 [8]): Active
- half-life [24]: 4.18 h
- half-life [25]: 10.4 h
- microsomal CLint [26]: 3.2 µL/min/mg
- AUC(0-inf) [27]: 6740 ng·h/mL
- Vz/F [28]: 0.2636 L/kg
- CL/F [29]: 5 mL/min/kg
- MRT [30]: 1.3 h
- bioavailability [31]: 17.3%
Structure (SMILES): O=C(OCc1ccc(C(F)(F)F)cc1)c1ccc(-c2cc3ncc(C(=O)c4c(O)ccc([N+](=O)[O-])c4O)cn3n2)cc1
- Activity (MV4-11 [9]): Active
- viability at 5 µM (MV4-11 [10]): 59%
- viability at 10 µM (MV4-11 [11]): 39.9%
- Activity (MV4-11 [12]): 2.15%
- viability at 5 µM (MOLM-13 [13]): 77.2%
- Activity (MOLM-13 [14]): 3.37%
- viability at 10 µM (MOLM-13 [15]): 61.5%
- Activity (MOLM-13 [16]): 2.88%
- Activity (MOLM-13 [17]): 4.14%
- T1/2 (MOLM-13 [18]): 2.06 h
- Activity (MOLM-13 [19]): Active
- Activity (MOLM-13 [20]): Active
- Activity (MV4-11 [21]): Active
- Activity (HEK293 [22]): inactive
- Activity (HEK293 [23]): inactive
- Activity (HUVEC): inactive
- Activity [32]: Non-Toxic
- Activity [33]: Non-Toxic
- Activity [34]: Non-Toxic
